How the values were obtained:
[1] = system: MBNL1 exon 5 inclusion in DM1 myotubes; experiment: Myotube splicing rescue assay (MBNL1 exon 5 inclusion); format: cell-based, human; details: 48-hour incubation
[2] = system: r(CUG)12-MBNL1 complex; experiment: Inhibition of the r(CUG)12-MBNL1 complex measured by TR-FRET; format: biochemical; details: 80 nM RNA, 60 nM MBNL1-His6

Row | IC50 ([2]; Table M) | IC50 ([2]; Table L) | Structure (SMILES) | MBNL1 % splicing rescue at 1 μM [1] | MBNL1 % splicing rescue at 10 μM [1]
1 | 13.5 µM |  | c1cc(-c2nc3cc(-c4ccc5[nH]c(-c6ccc(OCCN7CCCC7)cc6)nc5c4)ccc3[nH]2)ccc1OCCN1CCCC1 [Compound 347] | 78.9% | 98.1%
2 |  | 6.6 µM | O=C(NCCN1CCCCC1)c1ccc2nc(-c3ccc(-c4nc5ccc(C(=O)NCCN6CCCCC6)cc5[nH]4)cc3)[nH]c2c1 [Compound 41, 2,2′-(1,4-phenylene)bis(N-(2-(piperidin-1-yl)ethyl)-1H-benzo[d]imidazole-6-carboxamide)] | 43.7% | 59.1%
3 | 9.7 µM |  | CN(C)CCCOc1ccc2nc(-c3ccc(-c4nc5ccc(OCCCN(C)C)cc5[nH]4)nc3)[nH]c2c1 [Compound 276, 3,3′-(2,2′-(pyridine-2,5-diyl)bis(3H-benzo[d]imidazole-5,2-diyl))bis(oxy)bis(N,N-dimethylpropan-1-amine)] |  | 63.1%
4 | 3.11 µM |  | COc1cc(-c2nc3ccc(C(=O)OCCN(C)C)cc3[nH]2)c(OC)cc1-c1nc2ccc(C(=O)OCCN(C)C)cc2[nH]1 [Compound 269, bis(2-(dimethylamino)ethyl) 2,2′-(2,5-dimethoxy-1,4-phenylene)bis(1H-benzo[d]imidazole-6-carboxylate)] |  | 55.6%
5 | 9.7 µM |  | N=C(N)CCCOc1ccc2nc(-c3ccc(-c4nc5ccc(OCCCC(=N)N)cc5[nH]4)cc3)[nH]c2c1 [Compound 297] |  | −4.4%
6 | 6.14 µM |  | CN(C)CCCOc1ccc2nc(-c3ccc(-c4ccc(-c5nc6ccc(OCCCN(C)C)cc6[nH]5)cc4)cc3)[nH]c2c1 [Compound 170] | 24.6% | 85.5%
7 | 5.96 µM |  | CN1CC[C@@H](NC(=O)c2ccc(-c3nc4cc(-c5ccc6[nH]c(-c7ccc(C(=O)N[C@@H]8CCN(C)C8)cc7)nc6c5)ccc4[nH]3)cc2)C1 [Compound 339] | −3.2% | 1.8%
8 | 19.2 µM |  | CN1CCCCC1COc1ccc(-c2nc3cc(-c4ccc5[nH]c(-c6ccc(O)cc6)nc5c4)ccc3[nH]2)cc1 (stereo not drawn) [Compound 358] | 12.4% | 74.6%
9 | 10.7 µM |  | CN(C)CCCOc1ccc2nc(-c3ccc(-c4nc5ccc(C(=O)OCCN(C)C)cc5[nH]4)cc3)[nH]c2c1 [Compound 266] |  | −13.1%
10 |  | 6.1 µM | CN(C)CCNC(=O)c1ccc2nc(-c3ccc(-c4nc5ccc(NC6=NCCN6)cc5[nH]4)cc3)[nH]c2c1 [Compound 149] |  | −1.1%
11 | 6.1 µM |  | CN(C)CCCOc1c(F)cc2nc(-c3ccc(-c4nc5cc(F)c(OCCCN(C)C)c(F)c5[nH]4)cc3)[nH]c2c1F [Compound 273] |  | −15.3%
12 |  | 12.6 µM | CC(C)N(CCNC(=O)c1ccc(-c2nc3cc(-c4ccc5[nH]c(-c6ccc(C(=O)NCCN(C(C)C)C(C)C)cc6)nc5c4)ccc3[nH]2)cc1)C(C)C [Compound 113] | 7.9% | 45.3%
13 | 13.3 µM |  | CCN(CC)CCOc1ccc(-c2nc3cc(-c4ccc5[nH]c(-c6ccc(OCCN(CC)CC)cc6)nc5c4)ccc3[nH]2)cc1 [Compound 353] | 7.5% | 
14 | 27.3 µM |  | CN(C)CCCOc1ccc2nc(-c3ccc(-c4nc5ccc(OCCCN)cc5[nH]4)cc3)[nH]c2c1 [Compound 205, 3-((2-(4-(6-(3-aminopropoxy)-1H-benzo[d]imidazol-2-yl)phenyl)-1H-benzo[d]imidazol-6-yl)oxy)-N,N-dimethylpropan-1-amine] |  | −48.4%
15 | 10.1 µM |  | CN(C)CCNC(=O)c1ccc(-c2nc3cc(-c4ccc5[nH]c(-c6ccc(SCCN(C)C)cc6)nc5c4)ccc3[nH]2)cc1 [Compound 384] |  | 93.9%
16 | 5.81 µM |  | CN(C)CCOC(=O)c1ccc2nc(-c3ccc(-c4nc5ccc(C(=O)OCCN(C)C)cc5[nH]4)c(F)c3)[nH]c2c1 [Compound 270, bis(2-(dimethylamino)ethyl) 2,2′-(2-fluoro-1,4-phenylene)bis(1H-benzo[d]imidazole-6-carboxylate)] |  | −19.5%
17 |  | 15.8 µM | O=C(NCCN1CCC(O)CC1)c1ccc2[nH]c(-c3ccc(-c4nc5ccc(C(=O)NCCN6CCC(O)CC6)cc5[nH]4)cc3)nc2c1 [Compound 146] | 0.8% | 7.1%
18 | 9.6 µM |  | CN(C)CCCOc1ccc2nc(-c3ccc(-c4nc5ccc(OCCCN(C)C)cc5[nH]4)c(C#N)c3)[nH]c2c1 [Compound 268, 2,5-bis(6-(3-(dimethylamino)propoxy)-1H-benzo[d]imidazol-2-yl)benzonitrile] |  | 73.6%
19 | 5.6 µM |  | C#CCCCCN(C)CCNC(=O)c1ccc(-c2nc3cc(-c4ccc5[nH]c(-c6ccc(OCCCN(C)C)cc6)nc5c4)ccc3[nH]2)cc1 [Compound 403] |  | 90.5%
20 | 6.17 µM |  | CN1CCC(CNC(=O)c2ccc(-c3nc4cc(-c5ccc6[nH]c(-c7ccc(C(=O)NCC8CCN(C)CC8)cc7)nc6c5)ccc4[nH]3)cc2)CC1 [Compound 340] | −3.4% | −0.4%
21 |  | 8.1 µM | CCN(CC)CCNC(=O)c1ccc2nc(-c3ccc(-c4nc5ccc(C(=O)NCCN(CC)CC)cc5[nH]4)cc3)[nH]c2c1 [Compound 33] |  | 16.4%
22 | 5.3 µM |  | CN(C)CCCOc1cc2[nH]c(-c3ccc(-c4nc5cc(F)c(OCCCN(C)C)cc5[nH]4)c(F)c3)nc2cc1F [Compound 301, (3-[[2-(4-[6-[3-(dimethylamino)propoxy]-5-fluoro-1H-1,3-benzodiazol-2-yl]-3-fluorophenyl)-5-fluoro-1H-1,3-benzodiazol-6-yl]oxy]propyl)dimethylamine] |  | 19.4%
23 | 5.8 µM |  | CN(C)CCCOc1cc2nc(-c3ccc(-c4nc5cc(Cl)c(OCCCN(C)C)cc5[nH]4)cc3)[nH]c2cc1Cl [Compound 304, (3-[[6-chloro-2-(4-[5-chloro-6-[3-(dimethylamino)propoxy]-1H-1,3-benzodiazol-2-yl]phenyl)-1H-1,3-benzodiazol-5-yl]oxy]propyl)dimethylamine] |  | −42.3%
24 | 6.1 µM |  | CN1CCC(COc2ccc3nc(-c4ccc(-c5nc6ccc(OCC7CCN(C)CC7)cc6[nH]5)c(F)c4)[nH]c3c2)CC1 [Compound 315] |  | 88.4%
25 |  | 6.2 µM | CN(C)CCNC(=O)c1ccc2nc(-c3ccc(-c4nc5ccc(C(=O)NCCN(C)C)cc5[nH]4)cc3)[nH]c2c1 [Compound 16, 2,2′-(1,4-phenylene)bis(N-(2-(dimethylamino)ethyl)-1H-benzo[d]imidazole-6-carboxamide)] |  | −4.3%

Row | Structure (SMILES) | IC50 ([2]; Table M) | IC50 ([2]; Table L) | MBNL1 % splicing rescue at 1 μM [1] | MBNL1 % splicing rescue at 10 μM [1]
26 | CN(C)CCc1cn(-c2ccc3nc(-c4ccc(-c5nc6ccc(-n7cc(CCN(C)C)nn7)cc6[nH]5)cc4)[nH]c3c2)nn1 [Compound 221] | 2.53 µM |  |  | −2.5%

Reference: patent US10961202B2, “Bis-benzimidazole compounds and methods of using the same” (THE SCRIPPS RESEARCH INSTITUTE, priority 2017, dated 2021)
